Consider 4 molecules from patent publication US8551448B2, “Rotanone analogs: method of preparation and use” (The Regents of the University of California, priority 2006, dated 2013).

A short description of data set [1]: Biodistribution of iodorotenol and iodorotenone compounds in rats (organs and blood weighed and counted). The note with it: for uptake in the heart relative to the Z isomer: twenty microcuries into tail vein. The procedure: Evaluation of the iodorotenol and iodorotenone compounds. […] Twenty microcuries of the compound was injected into the rat tail vein. At various time points post injection (30 m, 1 h, 2 h, and 4 h) rats were euthanized and the organs and blood were weighed and counted.

A short description of data set [2]: Dual head planar whole body imaging in canines. The note with it: dogs; for heart uptake and retention (planar images): 4-6 mCi 123I compound iv in front leg vein, scans to 7 h (FIG. 17); for uptake in the thyroid: no thyroid blocking agent prior to the scan.
Procedure: Two 20-25 kg dogs were anesthetized with iv sodium pentathol and maintained on inhaled isoflurane. Four to six mCi of Z-[^123I]Iodorotenone or E-[^123I]Iodorotenone was injected in a front leg vein. Dual head planar imaging was carried out using the GE Millenium SPECT scanner with Hawkeye xray CT. The scanning protocol was serial 4 m whole body scans over the first hour, 8 m whole body scans from 1-2 h and 30 min whole body scans out to 7 h post injection of the tracer. […] No thyroid blocking agent was introduced prior to the scan.
The subject of data set [3] is isolated blood perfused rabbit heart. The note with it: cited from earlier work.

The structures appear in SMILES notation. Where two headings read alike, the source gives them in different places.

Regarding `COc1cc2c(cc1OC)C1C(CO2)Oc2c(ccc3c2CC(C(C)=CI)O3)C1O` (stereo not drawn) [E-iodorotenol, E-7′-iodorotenol], the “uptake in the heart relative to the Z isomer” value in data set [1] is reported as “two-fold increase”.

For `COc1cc2c(cc1OC)[C@@H]1C(=O)c3ccc4c(c3O[C@@H]1CO2)C[C@H](/C(C)=C/I)O4` [E-iodorotenone, E-7′-iodorotenone], in data set [2], the “heart uptake and retention (planar images)” value was “greater heart uptake and retention”; the “uptake in the thyroid” value is reported as “minimal”. Further, the “time to which the heart is clearly visible” value in data set [2] (planar imaging post injection) was 4.5 h. Moreover, the “heart uptake, injected dose in the heart tissue” value in data set [1] (tail vein injection, at 1 hour) came to 6.5 % injected dose. Also, the “uptake in the heart relative to the Z isomer” value in data set [1] is given as “nearly double”.

In the case of `[C-]#[N+]CC(C)(C)OC.[C-]#[N+]CC(C)(C)OC.[C-]#[N+]CC(C)(C)OC.[C-]#[N+]CC(C)(C)OC.[C-]#[N+]CC(C)(C)OC.[C-]#[N+]CC(C)(C)OC.[Tc]` [Tc-99m sestamibi], the net heart retention is recorded as 0.41±0.11 in data set [3] (at 1 min) and 0.27±0.11 in data set [3] (at 26 min). In data set [3], the extraction is listed as 0.48±0.10.

Take `COc1cc2c(cc1OC)[C@@H]1C(=O)c3ccc4c(c3O[C@@H]1CO2)C[C@H](/C(C)=C\I)O4` [Z-iodorotenone, Z-7′-iodorotenone]: in data set [2], the “heart uptake and retention (planar images)” value is on record as “washed out of the heart faster”; the “uptake in the thyroid” value is given as “minimal”. In addition, in data set [2] (planar imaging, compared with the E isomer), the “clearance through the gallbladder and stomach” value is listed as “more rapidly”.
